# Test results reported in publication PMC4026528 (PLoS ONE, 2014).
# Tests used:
# Format in all cases: cell-based, human
# [1] = tested on: U2OS (osteosarcoma) cells; test: Soft agar assay (anchorage-independent growth), U2OS; conditions: Homo sapiens
# Procedure: (§1) Soft agar assay and analysis was carried out as previously described. For scratch assay, confluent monolayer of U2OS and HT-1080 cells were subjected to scratch using a sterile pipette tip. Wounded monolayers were washed to remove debris and incubated with SEN461 at different concentrations for 20 hours. After the incubation period, images were taken under an Axiovert 200M (Zeiss) microscope equipped with a CCD camera, and the gap width was measured using MetaMorph 6.3 software (Universal Imaging Corp.) to calculate the area covered by cells (pixels unit). The tube formation assay was performed using growth factor-reduced Matrigel from BD (BD Biosciences; San Jose, CA, USA). Matrigel was thawed overnight at 4°C and was diluted (1∶1) with phenol red-free DMEM without serum. 100 µl of the diluted matrigel was used to coat the wells of a 96 well plate and was allowed to polymerize for 2 hours at 37°C. After equilibrating the gel with the complete growth medium, 15×10^3 cells were seeded in each well and incubated for 20 hours. The tube formation was monitored under a phase contrast microscope (Axiovert 200, Zeiss) and imaged using MetaMorph system (Universal Imaging Corp).
# HT-1080 cells = test: Tube formation assay, HT-1080
# Procedure: as §1, with “After equilibrating the gel with the complete growth medium, 15×10^3 cells were seeded in each well and incubated for 20 hours.” left out
# [2] = tested on: HT-1080 (fibrosarcoma) cells; test: Soft agar assay (anchorage-independent growth), HT-1080; conditions: Homo sapiens
# Procedure: as §1
# [3] = tested on: Wnt target gene mRNA in HT-1080 cells; test: Quantitative RT-PCR of Wnt target genes in HT-1080; conditions: HT-1080, overnight, 10 µmol/L
# Procedure: RNA extraction and quantitative RT-PCR (qPCR) expression analysis was performed as described previously. Gene expression analysis was performed using the human housekeeping gene RPL13A. Primers for the hAXIN2, hCDC25A, hc-MYC, hFZD4, hDVL2, hCSNK1G and hVEGF-A were the following: Fw: 5′-CAAGGGCCAGGTCACCAA-3′ Rv: 5′-CCCCCAACCCATCTTCGT-3′; Fw: 5′-[…]-3′ Rv: 5′-[…]-3′; Fw: 5′-GGCTCCTGGCAAAAGGTCA-3′ Rv: 5′-[…]-3′; Fw: 5′-[…]-3′ Rv: 5′-[…]-3′; Fw: 5′-[…]-3′ Rv: 5′-GTCTCCCCGCTCATTGCTC-3′; Fw: 5′-[…]-3′ Rv: 5′-[…]-3′; Fw: 5′-[…]-3′ Rv: 5′-[…]-3′.
# [4] = tested on: Axin1, c-Myc, p21 protein in HT-1080 cells; test: Western blotting in HT-1080; conditions: HT-1080, overnight
IC50 [1],IC50 [2],Structure (SMILES),"tubule-formation activity (HT-1080 cells; HT-1080, 24 hours exposure, vs DMSO)",c-MYC mRNA [3],c-Myc protein level [4],"tubule-formation activity (HT-1080 cells; HT-1080, 3 µmol/L, data not shown)"
200 nM,1900 nM,"Oc1nc(-c2ccc(C(F)(F)F)cc2)nc2c1CSCC2 [XAV939, reference compound]",did not produce any change,comparable activity,did not affect c-Myc protein level,–
–,–,Cc1ccc(C(=O)Nc2ccc(S(=O)(=O)O)c3cc(S(=O)(=O)O)cc(S(=O)(=O)O)c23)cc1NC(=O)c1cccc(NC(=O)Nc2cccc(C(=O)Nc3cc(C(=O)Nc4ccc(S(=O)(=O)O)c5cc(S(=O)(=O)O)cc(S(=O)(=O)O)c45)ccc3C)c2)c1 [Suramin],–,–,–,complete abrogation of tubule formation
